Experimental data taken from patent US20180228775A1, “METHODS OF TREATING CANCER” (Dana-Farber Cancer Institute, Inc., priority 2014, published 2018).

How the values were obtained:
[1] = test system: GM-CSF treated human monocytes; assay: CCL17 and CCL22 expression by GM-CSF treated human monocytes (ELISA); format: cell-based; conditions: human monocytes with GM-CSF
Protocol: CCL17 levels were normalized to the number of monocytes per well.
FIG. 43: Role of PPAR-g in restraining Treg recruitment and expansion is conserved in GM-CSF treated human monocytes.
CCL17 levels were measured using ELISA (DY364, R&D Systems).
In addition, these cultures were treated with DMSO or Rosi.

human PBMC = assay: Culture of human PBMC with GM-CSF (K562-GM) and PPAR-γ modulators: Treg numbers; format: cell-based

| Structure (SMILES) | CCL22 expression [1] | CCL17 expression ([1]; 10 uM Rosi, 5 days, ELISA) | Treg number / GM-CSF induced Treg expansion (human PBMC; human PBMC with GM-CSF (K562-GM), 10 uM Rosi or T0070907 luM every 48 hours, day 4-6) | Treg number (human PBMC; non-GM-CSF treated cultures (K562-WT)) |
| --- | --- | --- | --- | --- |
| O=C(Nc1ccncc1)c1cc([N+](=O)[O-])ccc1Cl [T0070907] | increasing | increasing | increase |  |
| CN(CCOc1ccc(CC2SC(=O)NC2=O)cc1)c1ccccn1 (stereo not shown) [Rosi, rosiglitazone] |  |  |  | no effect |
